These results are taken from US20220017861A1, “UREMIC VASCULOPATHY MODEL USING ENDOTHELIAL CELLS DERIVED FROM INDUCED PLURIPOTENT STEM CELLS AND UREMIC COMPLEX, AND USE THEREOF” (SAMSUNG LIFE PUBLIC WELFARE FOUNDATION, priority 2018, published 2022).

Common to all, as to assay type: cell-based
Assay [1] deals with endothelial cells derived from normal control induced pluripotent stem cells. As to the kind of experiment: Drug effect verification by tube formation in uremic vasculopathy endothelial cell model. To be noted: cells exposed to uremic toxin mixture or ESKD patient serum, then treated with drug, FIG. 11. As to the method: (§1) In order to evaluate the functional abnormality of endothelial cells that may form vascular structures, the tube formation ability was measured. After seeding endothelial cells into a 24 or 12-well plate applied with Matrigel (Corning, catalog number CB-40234). After 16 to 24 hours of incubation, the level of tube formation was compared and analyzed.
In order to confirm whether the effect of the drug can be verified using the uremic vasculopathy endothelial cell model prepared by treating with the uremic toxin mixture of the present invention, the uremic toxin mixture of the present invention or ESKD patient's serum was applied to endothelial cells derived from normal control induced pluripotent stem cells. Then, SD-208 (TGF-β inhibitor) and losartan (angiotensin receptor blocker) were treated to measure the level of tube formation in order to examine respective effects. The endothelial cells' tube formation ability was measured and compared in the uremic toxin mixture of the present invention (UT-F, UT-H, uric acid 3 (UA 3)), serum of patients with chronic kidney disease (patient 2, patient 4), normal control serum (control 1) and cell culture medium alone (media only).

Assay [2] relates to endothelial cells differentiated from induced pluripotent stem cells. As to the kind of experiment: Apoptosis of endothelial cells (Caspase-Glo 3/7 assay). To be noted: FIG. 7. As to the method: , apoptosis of endothelial cell was measured according to the manufactural instructions using the Caspase-Glo 3/7 assay systems kit (Promega, catalog number G8091), and the results are shown in FIG. 4.

The test system is the same in assay [3]. As to the kind of experiment: Tube formation ability of endothelial cells on Matrigel. The settings on record: 16 to 24 hours of incubation on Matrigel, FIGS. 8 and 9. On the procedure:
as §1
In order to confirm the reliability and effectiveness of the uremic vasculopathy endothelial cell model prepared by treating endothelial cells with the uremic toxin mixture of the present invention, the level of tube formation was measured to compare effects of the serum of ESKD patient undergoing hemodialysis and the uremic toxin mixture of the present invention by measuring the tube formation level.

Structures can show the parent of a compound that is named as a salt.

With `Fc1ccc(Cl)cc1-c1nc(Nc2ccncc2)c2nccnc2n1` [SD-208], the “inhibition of endothelial cell tube formation after drug treatment” value in assay [1] is given as “alleviated”.
Take `O=S(=O)(O)Oc1c[nH]c2ccccc12` [indoxyl sulfate, Indoxyl sulfate]: the “apoptosis of endothelial cells” value in assay [2] (single uremic toxin at 1 mM) is “not significantly promoted”.
`CCCCc1nc(Cl)c(CO)n1Cc1ccc(-c2ccccc2-c2nn[nH]n2)cc1` [losartan]: the “inhibition of endothelial cell tube formation after drug treatment” value in assay [1] is reported as “alleviated”.
For `NC(N)=O` [urea, Urea], in assay [2] (single uremic toxin at 50 mM), the “apoptosis of endothelial cells” value is given as “not significantly promoted”.
In the case of `O=c1[nH]c(=O)c2[nH]c(=O)[nH]c2[nH]1` [uric acid, Uric acid], the “apoptosis of endothelial cells” value in assay [2] (single uremic toxin at 1 mM) was “significantly promoted”. Moreover, in assay [3], the “tube formation ability of endothelial cells” value is recorded as “well maintained”.
